The test system of this series is Hela cells.

Description: Hela cells were treated with BC-1215 at different concentrations for 24 h before cell cycle analysis (BD bioscience).

As for `c1ccc(-c2ccc(CNCCNCc3ccc(-c4ccccn4)cc3)cc2)nc1` [BC-1215], the cell cycle progression entry is “did not significantly alter cell cycle progression”.

Source of the values: patent publication US11857550B2, “Benzathine analogs” (University of Pittsburgh—Of the Commonwealth System of …, priority 2012, dated 2024).
